Source: patent US8106055B2, “Substituted amide compounds” (Gruenenthal GmbH, priority 2007, dated 2012)
Where two headings read alike, the source gives them in different places.

What was measured:
[1] = biological target: T1, bradykinin 1 receptor (B1R) of the rat (Rattus norvegicus, UniProt P97583); assay: Functional investigation on the rat bradykinin 1 receptor (B1R), Ca2+ FLIPR assay in CHO K1 rB1R cells; format: cell-based
T1 construct: expressed in transfected cells; host or cells: CHO K1 cells
T1 sequence (P97583 1-337): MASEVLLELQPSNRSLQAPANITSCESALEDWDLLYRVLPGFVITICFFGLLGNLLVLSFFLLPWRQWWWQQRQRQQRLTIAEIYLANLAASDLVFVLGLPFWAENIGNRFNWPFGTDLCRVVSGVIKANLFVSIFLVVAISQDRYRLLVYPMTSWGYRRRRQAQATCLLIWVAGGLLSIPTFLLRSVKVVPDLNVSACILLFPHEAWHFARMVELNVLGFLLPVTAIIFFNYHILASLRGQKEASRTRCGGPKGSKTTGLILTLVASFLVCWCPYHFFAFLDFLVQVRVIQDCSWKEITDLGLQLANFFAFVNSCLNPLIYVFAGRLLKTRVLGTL
From the text: (§1) Functional Investigation on the Human Bradykinin 1 Receptor (B1R)
(§2) The agonistic or antagonistic action of substances can be determined on the bradykinin 1 receptor (B1R) of the human species and rats with the following assay. In accordance with this assay, the Ca^2+ inflow through the channel is quantified with the aid of a Ca^2=-sensitive dyestuff (type Fluo-4, Molecular Probes Europe BV, Leiden, Holland) in a fluorescent imaging plate reader (FLIPR, Molecular Devices, Sunnyvale, USA).
(§3) Chinese hamster ovary cells (CHO K1 cells) transfected stably with the human B1R gene (hB1R cells) or the B1R gene of the rat (rB1R cells) are used. For functional studies, these cells are plated out on black 96-well plates with a clear base (BD Biosciences, Heidelberg, Germany or Greiner, Frickenhausen, Germany) in a density of 20,000-35,000 cells/well. The cells are left overnight at 37° C. and 5% CO2 in culture medium (hB1R cells: Nutrient Mixture Ham's F12, Gibco Invitrogen GmbH, Karlsruhe, Germany or DMEM, Sigma-Aldrich, Taufkirchen, Germany; rB1R cells: D-MEM/F12, Gibco Invitrogen GmbH, Karlsruhe, Germany) with 10 vol. % of FBS (foetal bovine serum, Gibco Invitrogen GmbH, Karlsruhe, Germany or PAN Biotech GmbH, Aidenbach, Germany).
(§4) On the following day, the cells are loaded for 60 min at 37° C. with 2.13 μM Fluo-4 (Molecular Probes Europe BV, Leiden, The Netherlands) in HBSS buffer (Hank's buffered saline solution, Gibco Invitrogen GmbH, Karlsruhe, Germany) with 2.5 mM probenecid (Sigma-Aldrich, Taufkirchen, Germany) and 10 mM HEPES (Sigma-Aldrich, Taufkirchen, Germany). The plates are then washed 2× with HBSS buffer, and HBSS buffer which additionally contains 0.1% of BSA (bovine serum albumin; Sigma-Aldrich, Taufkirchen, Germany), 5.6 mM glucose and 0.05% of gelatine (Merck KGaA, Darmstadt, Germany) is added. After a further incubation of 20 minutes at room temperature, the plates are inserted into the FLIPR for the Ca^2+ measurement.
(§5) Alternatively, the plates are washed with buffer A (15 mM HEPES, 80 mM NaCl, 5 mM KCl, 1.2 mM CaCl2, 0.7 mM MgSO4, 2 g/l glucose, 2.5 mM probenecid), buffer A is added and the plates are loaded with 2.5 μM Fluo-4 and 0.025% of Pluronic F127 (Sigma-Aldrich, Taufkirchen, Germany). Thereafter, the cells are washed 2× with buffer A and incubated for 30 minutes with buffer A, which additionally contains 0.05% of BSA and 0.05% of gelatine, at room temperature and thereafter inserted into the FLIPR for the Ca^2+ measurement.
(§6) The Ca^2+-dependent fluorescence is measured before and after addition of substances (λex=488 nm, λem=540 nm). Quantification is by measurement of the highest fluorescence intensity (FC, fluorescence counts) over time.
(§7) The FLIPR protocol consists of 2 additions of substance. Test substances (10 μM) are first pipetted on to the cells and the Ca^2+ inflow is compared with the control (hB1R: Lys-Des-Arg^9-bradykinin >=50 nM; rB1R: Des-Arg^9-bradykinin 10 μM). This gives the information in % activation based on the Ca^2+ signal after addition of Lys-Des-Arg^9-bradykinin (>=50 nM) or Des-Arg^9-bradykinin (10 μM).
(§8) After incubation for 10-20 minutes, Lys-Des-Arg^9-bradykinin (hB1R) or Des-Arg^9-bradykinin (rB1R) is applied in the concentration of the EC80 and the inflow of Ca^2+ is likewise determined.
(§9) Antagonists lead to a suppression of the Ca^2+ inflow. % inhibition compared with the maximum achievable inhibition is calculated.
(§10) To determine the IC50 value, the substances are added in various concentrations. Duplicate or triplicate determinations (n=2 or n=3) are carried out, and these are repeated in at least one further independent experiment (N>=2).
(§11) Preferably, the compounds have a B1R antagonistic action on the human receptor and/or on the rat receptor. The following data are given by way of example in the following table: (In this, “B1R Ant. h” represents “B1R antagonism human” and “B1R Ant. r” represents “B1R antagonism rat”)

[2] = biological target: T2, human bradykinin 1 receptor (B1R) (Homo sapiens, UniProt P46663); assay: Functional investigation on the human bradykinin 1 receptor (B1R), Ca2+ FLIPR assay in CHO K1 hB1R cells; format: cell-based
T2 construct: expressed in transfected cells; host or cells: CHO K1 cells
T2 sequence (P46663 1-353): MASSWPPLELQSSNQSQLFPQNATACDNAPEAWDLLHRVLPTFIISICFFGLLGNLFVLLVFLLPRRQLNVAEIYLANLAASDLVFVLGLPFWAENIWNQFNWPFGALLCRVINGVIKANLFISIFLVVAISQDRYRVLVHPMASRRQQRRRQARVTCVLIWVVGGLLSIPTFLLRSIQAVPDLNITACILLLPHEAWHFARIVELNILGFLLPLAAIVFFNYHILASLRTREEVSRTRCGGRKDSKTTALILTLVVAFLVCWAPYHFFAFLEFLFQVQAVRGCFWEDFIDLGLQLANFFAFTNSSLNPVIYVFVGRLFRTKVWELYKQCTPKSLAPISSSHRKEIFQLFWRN
From the text: as §1, §2, §3, §4, §5, §6, §7, §8, §9, §10, §11

[3] = CHO-K1, read-out: B1R Ant. r [10 μM] % Inhibition
[4] = CHO-K1, read-out: B1R Ant. h [10 μM] % Inhibition
[5] = CHO-K1, B1R antagonism rat, test substance 10 μM, Ca2+ FLIPR, CHO K1 rB1R cells, read-out: B1R Ant. r [10 μM] % Inhibition
[6] = CHO-K1, B1R antagonism human, test substance 10 μM, Ca2+ FLIPR, CHO K1 hB1R cells, read-out: B1R Ant. h [10 μM] % Inhibition

| Structure (SMILES) | inhibition at 10 µM [1, 5] | inhibition at 10 µM [2, 6] | other results |
| --- | --- | --- | --- |
| CN(C)C(CCc1ccccc1)C1CCC(NC(=O)CCNC(=O)c2nc(-c3ccc4c(c3)OCO4)no2)CC1 (stereo not drawn) [Example 792, 3-benzo[1,3]dioxol-5-yl-[1,2,4]oxadiazole-5-carboxylic acid {2-[4-(1-dimethylamino-3-phenyl-propyl)-cyclohexylcarbamoyl]-ethyl}-amide] |  |  | inhibition at 10 µM [1, 3]: 2%; inhibition at 10 µM [2, 4]: 9% |
| CN(C)C(c1ccccc1)C1CCC(NC(=O)CNC(=O)c2nc(-c3ccc(C(F)(F)F)cc3)no2)CC1 (stereo not drawn) [Example 765, 3-(4-trifluoromethyl-phenyl)-[1,2,4]oxadiazole-5-carboxylic acid {[4-(dimethylamino-phenyl-methyl)-cyclohexylcarbamoyl]-methyl}-amide] | 29% | 15% |  |
| O=C(COC1CCN(S(=O)(=O)c2c(Cl)cc(Cl)cc2Cl)C1)NC1CCC(C(c2ccccc2)N2CCOCC2)CC1 (stereo not drawn) [Example 610, N-[4-(morpholin-4-ylphenylmethyl)-cyclohexyl]-2-[1-(2,4,6-trichlorobenzenesulfonyl)-pyrrolidin-3-yloxy]-acetamide] | 5% | 12% |  |
| CN(C)C(c1cccc(F)c1)C1CCC(CNC(=O)CNC(=O)c2nc(CS(=O)(=O)c3ccccc3)no2)CC1 (stereo not drawn) [Example 781, 3-benzenesulfonylmethyl-[1,2,4]oxadiazole-5-carboxylic acid [({4-[dimethylamino-(3-fluoro-phenyl)-methyl]-cyclohexylmethyl}-carbamoyl)-methyl]-amide] | -35% | -4% |  |
| CN(C)C(CCc1ccccc1)C1CCC(NC(=O)CNC(=O)c2nc(-c3ccc(C(C)(C)C)cc3)no2)CC1 (stereo not drawn) [Example 786, 3-(4-tert-butyl-phenyl)-[1,2,4]oxadiazole-5-carboxylic acid {[4-(1-dimethylamino-3-phenyl-propyl)-cyclohexylcarbamoyl]-methyl}-amide] | -4% | 35% |  |
| CN(CCOCC(=O)NC1CCC(C(c2ccccc2)N2CCOCC2)CC1)S(=O)(=O)c1c(Cl)cc(Cl)cc1Cl (stereo not drawn) [Example 607, 2-{2-[methyl-(2,4,6-trichlorobenzenesulfonyl)-amino]-ethoxy}-N-[4-(morpholin-4-ylphenylmethyl)-cyclohexyl]-acetamide] |  |  | B1R Ant. r [10 μM] % Inhibition ([1]; B1R antagonism rat, test substance 10 μM, Ca2+ FLIPR, CHO K1 rB1R cells): 3%; B1R Ant. h [10 μM] % Inhibition ([2]; B1R antagonism human, test substance 10 μM, Ca2+ FLIPR, CHO K1 hB1R cells): 12% |
| COc1ccccc1-c1noc(C(=O)NCC(=O)NC2CCC(C(CCc3ccccc3)N(C)C)CC2)n1 (stereo not drawn) [Example 782, 3-(2-methoxy-phenyl)-[1,2,4]oxadiazole-5-carboxylic acid {[4-(1-dimethylamino-3-phenyl-propyl)-cyclohexylcarbamoyl]-methyl}-amide] | -11% | -6% |  |
| CN(C)C(c1cccc(F)c1)C1CCC(CNC(=O)CCNC(=O)c2nc(-c3cccs3)no2)CC1 (stereo not drawn) [Example 780, 3-thiophen-2-yl-[1,2,4]oxadiazole-5-carboxylic acid [2-({4-[dimethylamino-(3-fluoro-phenyl)-methyl]-cyclohexylmethyl}-carbamoyl)-ethyl]-amide] | -2% | -12% |  |
| Cc1ccc(F)cc1-c1noc(C(=O)NCC(=O)NC2CCC(C(c3ccccc3)N(C)C)CC2)n1 (stereo not drawn) [Example 767, 3-(5-fluoro-2-methyl-phenyl)-[1,2,4]oxadiazole-5-carboxylic acid {[4-(dimethylamino-phenyl-methyl)-cyclohexylcarbamoyl]-methyl}-amide] | 17% | 43% |  |
| CN(C)C(c1cccc(F)c1)C1CCC(CNC(=O)CNC(=O)c2nc(-c3ccc(C(F)(F)F)cc3)no2)CC1 (stereo not drawn) [Example 778, 3-(4-trifluoromethyl-phenyl)-[1,2,4]oxadiazole-5-carboxylic acid [({4-[dimethylamino-(3-fluoro-phenyl)-methyl]-cyclohexylmethyl}-carbamoyl)-methyl]-amide] | 12% | -1% |  |
| COc1ccc(-c2noc(C(=O)NCCC(=O)NC3CCC(C(CCc4ccccc4)N(C)C)CC3)n2)cc1OC (stereo not drawn) [Example 789, 3-(3,4-dimethoxy-phenyl)-[1,2,4]oxadiazole-5-carboxylic acid {2-[4-(1-dimethylamino-3-phenyl-propyl)-cyclohexylcarbamoyl]-ethyl}-amide] | -6% | -11% |  |
| CN(C)C(CCc1ccccc1)C1CCC(NC(=O)CNC(=O)c2nc(-c3c(Cl)cccc3Cl)no2)CC1 (stereo not drawn) [Example 793, 3-(2,6-dichloro-phenyl)-[1,2,4]oxadiazole-5-carboxylic acid {[4-(1-dimethylamino-3-phenyl-propyl)-cyclohexylcarbamoyl]-methyl}-amide] | 6% | 104% |  |
| CN(C)C(CCc1ccccc1)C1CCC(NC(=O)CNC(=O)c2nc(-c3ccccn3)no2)CC1 (stereo not drawn) [Example 791, 3-pyridin-2-yl-[1,2,4]oxadiazole-5-carboxylic acid {[4-(1-dimethylamino-3-phenyl-propyl)-cyclohexylcarbamoyl]-methyl}-amide] |  |  | inhibition at 10 µM [1, 3]: 16%; inhibition at 10 µM [2, 4]: -3% |
| CN(C)C(c1ccccc1)C1CCC(NC(=O)CCNC(=O)c2nc(-c3ccc4c(c3)OCO4)no2)CC1 (stereo not drawn) [Example 768, 3-benzo[1,3]dioxol-5-yl-[1,2,4]oxadiazole-5-carboxylic acid {2-[4-(dimethylamino-phenyl-methyl)-cyclohexylcarbamoyl]-ethyl}-amide] | -2% | -3% |  |
| CN(C)C(c1ccccc1)C1CCC(NC(=O)CNC(=O)c2nc(-c3cccs3)no2)CC1 (stereo not drawn) [Example 764, 3-thiophen-2-yl-[1,2,4]oxadiazole-5-carboxylic acid {[4-(dimethylamino-phenyl-methyl)-cyclohexylcarbamoyl]-methyl}-amide] | -31% | 17% |  |
